In patent US20260183277A1, “ANTIVIRAL PHARMACEUTICAL COMPOSITION COMPRISING ERRy INHIBITOR AS ACTIVE INGREDIENT” (priority 2024, published 2026):

Tested on: SARS-CoV-2 KCDC03
Type: cell-based

## CC(C)N1CCN(c2ccc(/C(=C(/CCCO)c3ccccc3)c3ccc(O)cc3)cc2)CC1 [DN200434]
  genome replication, progeny production, and protein synthesis of SARS-CoV-2: effectively suppressed
